Laboratory results published in US20130296311A1, “INHIBITORS OF HCV NS5A” (PRESIDIO PHARMACEUTICALS, INC., priority 2010, published 2013).
Read-outs that look alike come from different tables or passages of the source.

System: HCV 1b_Huh-Luc/Neo-ET cell line persistently expressing a bicistronic genotype 1b replicon in Huh 7 cells
Test: HCV replicon assay (luciferase readout, 72 h)
Assay type: cell-based, HCV genotype 1b
Details: Hepatitis C virus
Method: Biological activity of the compounds of the invention was determined using an HCV replicon assay. The HCV 1b_Huh-Luc/Neo-ET cell line persistently expressing a bicistronic genotype 1b replicon in Huh 7 cells was obtained from ReBLikon GMBH. This cell line was used to test compound inhibition using luciferase enzyme activity readout as a measurement of compound inhibition of replicon levels.
On Day 1 (the day after plating), each compound is added in triplicate to the cells. Plates incubated for 72 h prior to running the luciferase assay. Enzyme activity was measured using a Bright-Glo Kit (cat. number E2620) manufactured by Promega Corporation. The following equation was used to generate a percent control value for each compound.
% Control=(Average Compound Value/Average Control)*100
The EC50 value was determined using GraphPad Prism and the following equation:
Y=Bottom+(Top-Bottom)/(1+10̂((LogIC50−X)*HillSlope))
EC50 values of compounds are determined several times in the replicon assay.
Example compounds of the disclosed invention are illustrated in Tables 1-16 attached as appendices. The tables show inhibitory activity of many of the example compounds with respect to HCV 1b. […] The tables further provide mass spectrometry results for the synthesized example compounds.

[1] = Huh-7, 72 h, read-out: Inhibition of HCV genotype 1b
[2] = Huh-7, read-out: Inhibition of HCV genotype 1b

## COC(=O)N[C@@H](C(=O)N1CCC[C@H]1c1ncc(-c2ccc(C#Cc3ccc4nc([C@@H]5CCCN5C(=O)[C@H](NC(=O)OC)C(C)C)[nH]c4c3)cc2)[nH]1)C(C)C [Compound 861]
[1]
  EC50: 10 to 999 nM

## COC(=O)N[C@H](C(=O)N1CCSC[C@H]1c1ncc(-c2ccc(C#Cc3ccc4nc([C@@H]5CCCN5C(=O)[C@@H](NC(=O)OC)C(C)C)[nH]c4c3)cc2)[nH]1)C(C)C [Compound 1062]
[1]
  EC50: < 1 nM

## COC(=O)N[C@H](C(=O)N1CCN(C(=O)OC)C[C@H]1c1ncc(-c2ccc(C#Cc3ccc4nc([C@@H]5CCCN5C(=O)[C@H](NC(=O)OC5CCOCC5)c5ccccc5)[nH]c4c3)cc2)[nH]1)C(C)C [Compound 1231]
[2]
  EC50: < 1 nM

## CC(C)[C@@H](NC(=O)N1CCCC1)C(=O)N1CCC[C@H]1c1ncc(-c2ccc(C#Cc3ccc(-c4cnc([C@@H]5CCCN5C(=O)[C@H](NC(=O)N5CCCC5)C(C)C)[nH]4)cc3)cc2)[nH]1 [Compound 293]
[1]
  EC50: > 1000 nM

## COC(=O)N[C@H](C(=O)N[C@@H](C)c1ncc(-c2ccc(C#Cc3ccc(-c4cnc([C@@H]5CCCN5C(=O)[C@H](C(C)C)N(C)C)[nH]4)cc3)cc2)[nH]1)C(C)C [Compound 963]
[1]
  EC50: 1 to 9.9 nM

## COC(=O)N[C@@H](C(=O)N1CCC[C@H]1c1ncc(-c2ccc(C#Cc3ccc4nc([C@@H]5CCCN5C(=O)[C@H](NC(=O)OC)c5ccccc5)[nH]c4c3)cc2)[nH]1)c1ccccc1 [Compound 800]
[1]
  EC50: < 1 nM

## CC[C@H](C)[C@H](NC(=O)OC)C(=O)N1CCC[C@H]1c1nc(C)c(C#Cc2ccc3cc(-c4cnc([C@@H]5CCCN5C(=O)[C@@H](NC(=O)OC)[C@@H](C)OC)[nH]4)ccc3c2)[nH]1 [Compound 1265]
[2]
  EC50: < 1 nM

## COC(=O)N[C@H](C(=O)N1CCC[C@H]1c1ncc(-c2cc(C)c(C#Cc3ccc4nc([C@@H]5CCCN5C(=O)[C@@H](NC(=O)OC)C(C)C)[nH]c4c3)c(C)c2)[nH]1)C(C)C [Compound 1060]
[1]
  EC50: < 1 nM

## COC(=O)N[C@H](C(=O)N1CCC[C@H]1c1nc2ccc3cc(C#Cc4ccc(-c5cnc([C@@H]6CCCN6C(=O)[C@H](NC(=O)OC)c6ccccc6)[nH]5)cc4F)ccc3c2[nH]1)C(C)C [Compound 1100]
[1]
  EC50: < 1 nM

## COC(=O)N[C@H](C(=O)N1CCC[C@H]1c1ncc(-c2ccc(C#Cc3ccc(-c4cnc([C@@H]5CCCN5C(=O)[C@@H](NC(=O)OC)[C@@H](C)O)[nH]4)cc3)cc2)[nH]1)C(C)C [Compound 971]
[1]
  EC50: < 1 nM

## COC[C@H](NC(=O)OC)C(=O)N1CCC[C@H]1c1ncc(-c2ccc(C#Cc3ccc4nc([C@@H]5CCCN5C(=O)[C@@H](NC(=O)OC)C(C)C)[nH]c4c3)cc2)[nH]1 [Compound 1236]
[2]
  EC50: < 1 nM

## COC(=O)N[C@@H](C(=O)N1CCC[C@H]1c1ncc(-c2ccc(C#Cc3ccc(-c4cnc([C@@H]5CCCN5C(=O)[C@H](NC(=O)N5CCC[C@H]5CO)c5ccccc5)[nH]4)cc3)cc2)[nH]1)c1ccccc1 [Compound 255]
[1]
  EC50: < 1 nM

## O=C(N[C@@H](C(=O)N1CCC[C@H]1c1ncc(-c2ccc(C#Cc3ccc(-c4cnc([C@@H]5CCCN5C(=O)[C@@H](c5ccccc5)N5CCOCC5)[nH]4)cc3)cc2)[nH]1)c1ccccc1)C1CC1 [Compound 237]
[1]
  EC50: < 1 nM

## CC(C)(C)OC(=O)NC(C)(C)C(=O)N1CCC[C@H]1c1ncc(C#Cc2ccc(-c3cnc([C@@H]4CCCN4C(=O)C(C)(C)NC(=O)OC(C)(C)C)[nH]3)cc2)[nH]1 [Compound 106]
[1]
  EC50: > 1000 nM

## COC(=O)N[C@@H](C(=O)N1CCC[C@H]1c1ncc(C#Cc2ccc(C#Cc3cnc([C@@H]4CCCN4C(=O)[C@H](NC(=O)OC)c4ccccc4)[nH]3)cc2)[nH]1)c1ccccc1 [Compound 304]
[1]
  EC50: < 1 nM

## COC(=O)N[C@H](C(=O)N1CCN(C(=O)OC)C[C@H]1c1ncc(-c2ccc(C#Cc3ccc(-c4cnc([C@@H]5CCCN5C(=O)[C@H](NC(=O)OC5CCOCC5)c5ccccc5)[nH]4)cc3)cc2)[nH]1)C(C)C [Compound 1207]
[2]
  EC50: < 1 nM

## CC[C@H](C)[C@H](NC(=O)OC)C(=O)N1CCC[C@H]1c1ncc(-c2ccc3cc(C#Cc4[nH]c([C@@H]5CCCN5C(=O)[C@@H](NC(=O)OC)[C@@H](C)OC)nc4C(F)(F)F)ccc3c2)[nH]1 [Compound 1259]
[2]
  EC50: < 1 nM

## [2H]C([2H])([2H])C([2H])(C([2H])([2H])[2H])[C@]([2H])(NC(=O)OC)C(=O)N1CCC[C@H]1c1nc2ccc(C#Cc3ccc4c(c3)CCc3nc([C@@H]5CCCN5C(=O)[C@@H](NC(=O)OC)C(C)C)[nH]c3-4)cc2[nH]1 [Compound 1106]
[1]
  EC50: < 1 nM

## COC(=O)N[C@H](C(=O)N1CCC[C@H]1c1nc2ccc(C#Cc3ccc(-c4cnc([C@@H]5CCCN5C(=O)[C@@H](NC(=O)OC)C5CCOCC5)[nH]4)cc3)cc2[nH]1)C(C)C [Compound 1237]
[2]
  EC50: < 1 nM

## CC(C)[C@@H](NC(=O)OC(C)(C)C)C(=O)N1CCC[C@H]1c1ncc(C#Cc2ccc(C#Cc3cnc([C@@H]4CCCN4C(=O)[C@H](NC(=O)OC(C)(C)C)C(C)C)[nH]3)cc2)[nH]1 [Compound 301]
[1]
  EC50: > 1000 nM

## COC(=O)N[C@@H](C(=O)N1CCC[C@H]1c1ncc(-c2ccc(C#Cc3ccc(-c4cnc([C@@H]5CCCN5C(=O)[C@H](NC(=O)C5CC5)c5ccccc5)[nH]4)cc3)cc2)[nH]1)c1ccccc1 [Compound 218]
[1]
  EC50: < 1 nM

## CC[C@H](NC(=O)OC)C(=O)N1CCC[C@H]1c1ncc(-c2ccc(C#Cc3ccc4nc([C@@H]5CCCN5C(=O)[C@H](CC)NC(=O)OC)[nH]c4c3)cc2)[nH]1 [Compound 1036]
[1]
  EC50: < 1 nM

## COC(=O)N[C@@H](C(=O)N1CCC[C@H]1c1ncc(C#Cc2ccc(C#Cc3cnc([C@@H]4CCCN4C(=O)[C@@H](c4ccccc4)N4CCCCC4)[nH]3)cc2)[nH]1)c1ccccc1 [Compound 312]
[1]
  EC50: < 1 nM

## CN1CCN(C(=O)N[C@@H](C(=O)N2CCC[C@H]2c2cc(-c3ccc(C#Cc4ccc(-c5cnc([C@@H]6CCCN6C(=O)[C@H](NC(=O)N6CCN(C)CC6)c6ccccc6)[nH]5)cc4)cc3)n[nH]2)c2ccccc2)CC1 [Compound 213]
[1]
  EC50: < 1 nM

## COC(=O)N[C@@H](CC(=O)N1CCC[C@H]1c1ncc(-c2ccc(C#Cc3ccc4nc([C@@H]5CCCN5C(=O)C[C@H](NC(=O)OC)C(C)C)[nH]c4c3)cc2)[nH]1)C(C)C [Compound 1064]
[1]
  EC50: 10 to 999 nM

## COC(=O)N[C@H]1CCC[C@@H]1C(=O)N1CCC[C@H]1c1ncc(-c2ccc(C#Cc3ccc4nc([C@@H]5CCCN5C(=O)[C@H]5CCC[C@@H]5NC(=O)OC)[nH]c4c3)cc2)[nH]1 [Compound 1059]
[1]
  EC50: 10 to 999 nM

## COC(=O)N[C@H](C(=O)N1CCC[C@H]1c1ncc(-c2ccc(C#Cc3ccc4c(ccc5nc([C@@H]6CCCN6C(=O)[C@@H](NC(=O)OC)C(C)C)[nH]c54)c3)cc2)[nH]1)C(C)C [Compound 1095]
[1]
  EC50: < 1 nM

## COC(=O)N[C@H](C(=O)N1CCC[C@H]1c1ncc(-c2ccc(C#Cc3ccc(-c4cnc([C@@H]5CCCN5C(=O)[C@@H](NC(=O)OC)C(C)C)[nH]4)c(F)c3)cc2)[nH]1)C(C)C [Compound 1011]
[1]
  EC50: < 1 nM

## O=C(N[C@@H](C(=O)N1CCC[C@H]1c1nc(-c2ccc3cc(C#Cc4cnc([C@@H]5CCCN5C(=O)[C@H](NC(=O)N5CCOCC5)c5ccccc5)[nH]4)ccc3c2)c[nH]1)c1ccccc1)N1CCOCC1 [Compound 808]
[1]
  EC50: < 1 nM

## C[C@H]1OC(=O)N[C@@H]1C(=O)N1CCC[C@H]1c1ncc(-c2ccc(C#Cc3ccc(-c4cnc([C@@H]5CCCN5C(=O)[C@H]5NC(=O)O[C@@H]5C)[nH]4)cc3)cc2)[nH]1 [Compound 979]
[1]
  EC50: 10 to 999 nM

## COC(=O)N[C@H](C(=O)N1CCC[C@H]1c1ncc(-c2ccc3cc(C#Cc4[nH]c([C@@H]5CCCN5C(=O)[C@@H](NC(=O)OC)C5CCOCC5)nc4C(F)(F)F)ccc3c2)[nH]1)C1CCOCC1 [Compound 1256]
[2]
  EC50: < 1 nM

## COC(=O)NC(C(=O)N1CCC[C@H]1c1nc2ccc(C#Cc3ccc4cc(-c5cnc([C@@H]6CCCN6C(=O)[C@@H](NC(=O)OC)C6CCOCC6)[nH]5)ccc4n3)cc2[nH]1)C(C)C (some centres unmarked) [Compound 1290]
[2]
  EC50: < 1 nM

## COC(=O)N[C@@H](C(=O)N1CCC[C@H]1c1ncc(-c2ccc(C#Cc3ccc(-c4cnc([C@@H]5CCCN5C(=O)[C@H](NC(=O)OC)c5ccccc5)[nH]4)cc3C(=O)OC)cc2)[nH]1)c1ccccc1 [Compound 1201]
[2]
  EC50: < 1 nM

## COC(=O)N[C@H](C(=O)N1CCC[C@H]1c1ncc(-c2ccc(C#Cc3ccc4nc([C@@H]5CCCN5C(=O)[C@@H](C(C)C)N(C)C)[nH]c4c3)cc2)[nH]1)C(C)C [Compound 1020]
[1]
  EC50: < 1 nM

## COC(=O)N[C@H](C(=O)N[C@@H](C)c1ncc(-c2ccc(C#Cc3ccc4nc([C@@H]5CCCN5C(=O)[C@@H](NC(=O)OC)C(C)C)[nH]c4c3)cc2)[nH]1)C(C)C [Compound 869]
[1]
  EC50: < 1 nM

## COC(=O)N[C@H](C(=O)N1CCC[C@H]1c1nc2c([nH]1)-c1ccc(C#Cc3ccc4nc([C@@H]5CCCN5C(=O)[C@@H](NC(=O)OC)C5CCOCC5)[nH]c4c3)cc1CCC2)C(C)C [Compound 1280]
[2]
  EC50: < 1 nM

## COC(=O)N[C@@H](C(=O)N1CCC[C@H]1c1ncc(-c2ccc(C#Cc3ccc(C(=O)NC[C@@H]4CCCN4C(=O)[C@H](NC(=O)N4CCOCC4)c4ccccc4)cc3)cc2)[nH]1)c1ccccc1 [Compound 235]
[1]
  EC50: < 1 nM

## COC(=O)N[C@H](C(=O)N1CCN(C(=O)OC)C[C@H]1c1ncc(-c2ccc(C#Cc3ccc4nc([C@@H]5CCCN5C(=O)[C@@H](NC(=O)OC)C5CCOCC5)[nH]c4c3)cc2)[nH]1)C(C)C [Compound 1229]
[2]
  EC50: < 1 nM
